The record followed here is patent EP0140270A2 (priority 1983, dated 1985).

What all share (format): in vivo
For test [1], the system named is Pyricularia oryzae. Conditions: protective; young rice plants sprayed to dripping wet, then inoculated; evaluated 4 days after inoculation; compared with prior art (Zinkethylen-1,2-bis-dithiocarbamat).
The next test concerns Phytophthora infestans. Conditions: curative; young tomato plants inoculated, sprayed after 7 hours incubation; evaluated 3 days after inoculation; compared with prior art (Zinkethylen-1,2-bis-dithiocarbamat).
In test [2] the test system is Pyricularia oryzae. Particulars: systemic; 40 ml preparation poured on soil of young rice plants; inoculated 7 days after treatment; evaluated 4 days after inoculation; compared with prior art (Zinkethylen-1,2-bis-dithiocarbamat).

Read-outs that look alike come from different tables or passages of the source.

For the molecule `C#CC(C)(C)C(C(N)=O)C(=O)OCC` (centres unmarked) [Beispiel 3, 3,3-Dimethyl-2-etrcry-carbonyl-pent-4-insaureamid], in the test with Pyricularia oryzae [1], the “Wirksamkeit (Krankheitsbefall)” value is “deutliche Überlegenheit in der Wirksamkeit gegenüber dem Stand der Technik”. In the test with Phytophthora infestans, the Wirksamkeit entry is listed as “deutliche Überlegenheit in der Wirksamkeit gegenüber dem Stand der Technik”.
Regarding `C#CC(C)(C)C(C(=O)OCC)C(=O)OCC` [Beispiel 20, 3,3-Dimethyl-2-ethoxycarbonyl-pent-4-insäureethylester], the “Wirksamkeit (Krankheitsbefall)” value in the test with Pyricularia oryzae [2] is reported as “deutliche Überlegenheit in der Wirksamkeit gegenüber dem Stand der Technik”.
`C#CC(C)(C)C(C(=O)OC)C(=O)OC` [Beispiel 1, 3,3-Dimethyl-2-methoxycarbcnyL-pent-4-insäuremethylester]: the “Wirksamkeit (Krankheitsbefall)” value in the test with Pyricularia oryzae [2] is “deutliche Überlegenheit in der Wirksamkeit gegenüber dem Stand der Technik”.
Take `CCOC(=O)CC(C)(C)C#CC(=O)OCCI` [Beispiel 4, 3,3-DimethyL-5-iodethoxycarbonyl-pent-4-insäureethylester]: the “Wirksamkeit (Krankheitsbefall)” value with Pyricularia oryzae [2] and with Pyricularia oryzae [1] was “deutliche Überlegenheit in der Wirksamkeit gegenüber dem Stand der Technik” throughout.
In the case of `C#CC(C)(C)C(C(=O)O)C(=O)OCC` (centres unmarked) [Beispiel 2, 3,3-Dimethyl-2-ethoxycarbonyl-pent-4-insäure], the “Wirksamkeit (Krankheitsbefall)” value in the test on Pyricularia oryzae [2] and in the test with Pyricularia oryzae [1] was “deutliche Überlegenheit in der Wirksamkeit gegenüber dem Stand der Technik” each time.
